From patent publication US20110212958A1, “FATTY ACID RALOXIFENE DERIVATIVES AND THEIR USES” (CATABASIS PHARMACEUTICALS, INC., priority 2010, published 2011)

Test system: NF-κB
Experiment: NF-κB luciferase reporter assay in LPS-stimulated RAW 264.7 macrophages
Type: cell-based
Conditions: Mus musculus, RAW264.7; RAW 264.7 cells with 3× NFkB response element luciferase reporter; 2 hour pretreatment, 200 ng/ml LPS for 3 hours; 6 dose point titrations in triplicate
Procedure: RAW 264.7 cells stably expressing a 3× NFkB response elemement-drive luciferase reporter were seeded into 96 well plates in sera-free medium (Optimem) 18 hours prior to compound application. Compounds of the invention were prepared by first making 100 mM stock solutions in EtOH. Stock solutions were then diluted 1:100 in low LPS FBS (Gemini BenchMark 100-106), mixed vigorously and allowed to incubate at room temperature for 30 minutes. 1:2 serial dilutions were then made in FBS supplemented with 1% EtOH, mixed vigorously, and again allowed to incubate at room temperature for 30 minutes before adding to RAW 264.7 reporter cells (final concentrations: 10% FBS, 100 uM highest compound dilution, 0.1% EtOH) for a 2 hour pretreatment prior to stimulation with LPS. Cells were then stimulated with 200 ng/ml LPS or vehicle control for 3 hours in the presence of the compounds of the invention. A set of six vehicles was left unstimulated with LPS in order to measure the assay floor. […] After the 3 h incubation period with LPS, cell viability was measured by reading fluorescence (excitation 550 nm, emission 595 nm) with a Perkin Elmer Victor V plate reader. […] Luciferase activity was measured with the Perkin Elmer Victor V plate reader. NF-κB activity was expressed as a percent of the vehicle control wells (stimulated with LPS). […]

In the case of CC/C=C\C/C=C\C/C=C\C/C=C\C/C=C\C/C=C\CCC(=O)NCCNC(=O)Oc1ccc2c(C(=O)c3ccc(OCCN4CCOCC4)cc3)c(-c3ccc(O)cc3)sc2c1 [III-4, 2-(4-hydroxyphenyl)-3-(4-(2-morpholinoethoxy)benzoyl)benzo[b]thiophen-6-yl 2-(4Z,7Z,10Z,13Z,16Z,19Z)-docosa-4,7,10,13,16,19-hexaenamidoethylcarbamate], the IC50 is reported as ~50 µM.
